Results from publication PMC11243693, “Synthesis and Biological Evaluation of New Compounds with Nitroimidazole Moiety” (Molecules, 2024).
Values after ≈ are worked out from the molar mass of the structure shown. Read-outs that look alike come from different tables or passages of the source.

Key:
Assay type in all cases: cell-based
[1] = system: Bacillus subtilis ATCC 6633; experiment: Broth microdilution, B. subtilis ATCC 6633; details: Bs 6633; for MBC/MIC Ratio: <4 bactericidal, ≥4 bacteriostatic
Description: (§1) The antibacterial activity of the obtained thiosemicarbazides and hydrazide–hydrazones was determined by evaluating their ability to inhibit microbial growth in vitro using the broth microdilution method, according to the guidelines of the European Committee on Antimicrobial Susceptibility Testing (EUCAST). The method involved the preparation of microbial suspensions with a standardized density of 0.5 on the McFarland scale (equivalent to 1.5 × 10^8 colony-forming units/mL for bacteria and […] for fungi). A solution of the test substances was then prepared (initial concentration 1000 µg/mL, diluted in sterile Mueller-Hinton broth for bacteria or Mueller-Hinton with 2% glucose for fungi). The test was carried out in 96-well polystyrene flat-bottom plates (Medlab, Poland) with 100 µL of appropriate sterile microbiological medium in each well. The first wells were filled with 200 µL of the test substance, diluted to the initial concentration, and then double-decreasing dilutions were made under aseptic conditions using an automatic pipette. The final step was the addition of a 10-fold diluted microbial suspension of 2 µL. At the same time, the following controls were included: (a) medium control (100 µL of sterile medium without microorganisms added), (b) microbial viability control, (c) test substance control (dilutions without added micro-organisms), (d) positive control of the drug used in the clinic. The plates thus prepared were incubated for 18 ± 2 h at 35 ± 2 °C under conditions optimal for the growth of the test microorganisms. After incubation, the spectrophotometric absorbance at 570 nm in each well of the plate was read. The aim of this part of the study was to determine two parameters: the minimum inhibitory concentration (MIC) and the minimum bactericidal or fungicidal concentration (MBC/MFC) of the test compound. […] The MBC value was determined by adding 5 µL of the contents of each well of the plate to solid sterile MHA or MHA + 2%glc medium for bacteria and fungi, respectively. The area on the plate where 99.9% inhibition of microbial growth was observed indicated the lethal concentration. In addition, the quotient MBC(MFC)/MIC could be determined to assess the nature of the activity of the test substance. If MBC(MFC)/MIC was <4, the test substance was bactericidal/fungicidal, whereas if MBC(MFC)/MIC was ≥4, it was bacteriostatic/fungistatic. Amoxicillin (Glentham Life Sciences, USA) and nystatin (Glentham Life Sciences, USA) were used as the controls for this assay.
(§2) The test was performed either on bacteria, comprising: Gram-positive (Staphylococcus aureus ATCC 25923, Staphylococcus aureus ATCC 6538, Staphylococcus aureus ATCC 43300 methicillin-resistant MRSA, Staphylococcus epidermidis ATCC 12228, Micrococcus luteus ATCC 10240, Bacillus subtilis ATCC 6633, Bacillus cereus ATCC 10876) and Gram-negative (Escherichia coli ATCC 25922, Pseudomonas aeruginosa ATCC 27853, Proteus mirabilis ATCC 12453, Klebsiella pneumoniae ATCC 13883) or yeast (Candida parapsilosis ATCC 22019, Candida glabrata ATCC 90030, Candida krusei ATCC 14243, Candida glabrata ATCC 15126, Candida tropicalis ATCC 1369, Candida auris CDC B11903, Candida lusitaniae ATCC 3449) reference strains from the American Type Culture Collection (ATCC) or the Centers for Disease Control and Prevention (CDC).

[2] = system: Staphylococcus epidermidis ATCC 12228; experiment: Broth microdilution, S. epidermidis ATCC 12228; details: Se 12228; for MBC/MIC Ratio: <4 bactericidal, ≥4 bacteriostatic
Description: as §1, §2

[3] = system: Staphylococcus aureus ATCC 25923; experiment: Broth microdilution, S. aureus ATCC 25923; details: Sa 25923
Description: as §1, §2

[4] = system: Micrococcus luteus ATCC 10240; experiment: Broth microdilution, M. luteus ATCC 10240; details: Ml 10240; for MBC/MIC Ratio: <4 bactericidal, ≥4 bacteriostatic
Description: as §1, §2

[5] = system: Staphylococcus aureus ATCC 6538; experiment: Broth microdilution, S. aureus ATCC 6538; details: Sa 6538
Description: as §1, §2

[6] = system: Bacillus cereus ATCC 10876; experiment: Broth microdilution, B. cereus ATCC 10876; details: Bc 10876; for MBC/MIC Ratio: <4 bactericidal, ≥4 bacteriostatic
Description: as §1, §2

[7] = system: Staphylococcus aureus ATCC 43300 methicillin-resistant MRSA; experiment: Broth microdilution, S. aureus ATCC 43300 MRSA; details: Sa 43300 MRSA
Description: as §1, §2

[8] = system: Candida glabrata ATCC 15126; experiment: Broth microdilution, C. glabrata ATCC 15126; details: Cg 15126
Description: as §1, §2

[9] = system: Candida krusei ATCC 14243; experiment: Broth microdilution, C. krusei ATCC 14243; details: Ck 14243
Description: as §1, §2

[10] = system: Candida lusitaniae ATCC 3449; experiment: Broth microdilution, C. lusitaniae ATCC 3449; details: Cl 3449
Description: as §1, §2

Candida auris CDC B11903 = experiment: Broth microdilution, C. auris CDC B11903; details: Ca B11903
Description: as §1, §2

[11] = system: Candida tropicalis ATCC 1369; experiment: Broth microdilution, C. tropicalis ATCC 1369; details: Ct 1369
Description: as §1, §2

[12] = system: Candida glabrata ATCC 90030; experiment: Broth microdilution, C. glabrata ATCC 90030; details: Cg 90030
Description: as §1, §2

[13] = system: Candida parapsilosis ATCC 22019; experiment: Broth microdilution, C. parapsilosis ATCC 22019; details: Cp 22019
Description: as §1, §2

Compound	MIC [8] [µg/mL]	MIC [9] [µg/mL]	MIC [1] [µg/mL]	MIC [2] [µg/mL]	MIC [10] [µg/mL]	MIC [3] [µg/mL]	MIC (Candida auris CDC B11903) [µg/mL]	MIC [11] [µg/mL]	MIC [4] [µg/mL]	MIC [5] [µg/mL]	MIC [12] [µg/mL]	MIC [13] [µg/mL]	MIC [6] [µg/mL]	MBC [1] [µg/mL]	MBC [2] [µg/mL]	MBC [3] [µg/mL]	MFC [11] [µg/mL]	MBC [4] [µg/mL]	MBC/MIC Ratio [4]	MFC [13] [µg/mL]	other results
CC1(C)S[C@@H]2[C@H](NC(=O)[C@H](N)c3ccc(O)cc3)C(=O)N2[C@H]1C(=O)O [AMX, amoxicillin, reference compound]																					MBC ([1]; Bacillus subtilis, ATCC6633, read-out: MBC): 125 µg/mL (≈ 342 µM); MIC ([1]; Bacillus subtilis, ATCC6633, read-out: MIC): 125 µg/mL (≈ 342 µM); MBC ([2]; Staphylococcus epidermidis, ATCC12228, read-out: MBC): 0.98 µg/mL (≈ 2.68 µM); MIC ([2]; Staphylococcus epidermidis, ATCC12228, read-out: MIC): 0.98 µg/mL (≈ 2.68 µM); MBC ([3]; Staphylococcus aureus, ATCC25923, read-out: MBC): 0.98 µg/mL (≈ 2.68 µM); MIC ([3]; Staphylococcus aureus, ATCC25923, read-out: MIC): 0.98 µg/mL (≈ 2.68 µM); MBC ([4]; Micrococcus luteus, ATCC10240, read-out: MBC): 0.98 µg/mL (≈ 2.68 µM); MIC ([4]; Micrococcus luteus, ATCC10240, read-out: MIC): 0.98 µg/mL (≈ 2.68 µM); MBC ([5]; Staphylococcus aureus, ATCC6538, read-out: MBC): 0.98 µg/mL (≈ 2.68 µM); MIC ([5]; Staphylococcus aureus, ATCC6538, read-out: MIC): 0.98 µg/mL (≈ 2.68 µM); MBC ([6]; Bacillus cereus, ATCC10876, read-out: MBC): 125 µg/mL (≈ 342 µM); MIC ([6]; Bacillus cereus, ATCC10876, read-out: MIC): 125 µg/mL (≈ 342 µM); MBC ([7]; Staphylococcus aureus, read-out: MBC): 31.2 µg/mL (≈ 85.5 µM); MIC ([7]; Staphylococcus aureus, read-out: MIC): 31.2 µg/mL (≈ 85.5 µM)
Cn1cc([N+](=O)[O-])nc1C(=O)NNC(=S)Nc1ccc(Cl)cc1 [Compound 5]	>1000	>1000	62.5 (≈ 176 µM)	125 (≈ 352 µM)	>1000	62.5 (≈ 176 µM)	>1000	500 (≈ 1410 µM)	125 (≈ 352 µM)	125 (≈ 352 µM)	>1000	62.5 (≈ 176 µM)	250 (≈ 705 µM)	62.5 (≈ 176 µM)	125 (≈ 352 µM)	>1000	>1000	125 (≈ 352 µM)	1	>1000	MBC/MIC Ratio [1]: 1; MBC/MIC Ratio [2]: 1; MBC [5]: >1000 µg/mL; MBC [6]: 250 µg/mL (≈ 705 µM); MBC/MIC Ratio [6]: 1; MBC [7]: >1000 µg/mL; MIC [7]: 125 µg/mL (≈ 352 µM)
Cn1cc([N+](=O)[O-])nc1C(=O)NNC(=S)Nc1ccccc1F [Compound 6]	>1000	>1000	250 (≈ 739 µM)	500 (≈ 1480 µM)	>1000	250 (≈ 739 µM)	>1000	250 (≈ 739 µM)	250 (≈ 739 µM)	1000 (≈ 2960 µM)	>1000	1000 (≈ 2960 µM)	500 (≈ 1480 µM)	500 (≈ 1480 µM)	500 (≈ 1480 µM)	>1000	>1000	250 (≈ 739 µM)	1	>1000	MBC/MIC Ratio [1]: 2; MBC/MIC Ratio [2]: 1; MBC [5]: >1000 µg/mL; MBC [6]: 1000 µg/mL (≈ 2960 µM); MBC/MIC Ratio [6]: 2; MBC [7]: >1000 µg/mL; MIC [7]: 1000 µg/mL (≈ 2960 µM)
Cn1cc([N+](=O)[O-])nc1C(=O)NNC(=S)Nc1ccc(F)cc1 [Compound 8]	>1000	>1000	250 (≈ 739 µM)	500 (≈ 1480 µM)	>1000	250 (≈ 739 µM)	>1000	250 (≈ 739 µM)	250 (≈ 739 µM)	>1000	>1000	1000 (≈ 2960 µM)	500 (≈ 1480 µM)	250 (≈ 739 µM)	500 (≈ 1480 µM)	>1000	>1000	500 (≈ 1480 µM)	2	>1000	MBC/MIC Ratio [1]: 1; MBC/MIC Ratio [2]: 1; MBC [6]: 1000 µg/mL (≈ 2960 µM); MBC/MIC Ratio [6]: 2; MBC [7]: >1000 µg/mL; MIC [7]: 1000 µg/mL (≈ 2960 µM)
C[C@@H]1[C@H](O)[C@@H](C)/C=C/C=C/CC/C=C/C=C/C=C/C=C/C(O[C@H]2O[C@H](C)[C@@H](O)[C@H](N)[C@@H]2O)CC2O[C@](O)(CC(O)C(O)CCC(O)CC(O)CC(O)CC(=O)O[C@H]1C)CC(O)C2C(=O)O (stereo partly drawn) [NYS, nystatin, reference compound]	1.56 (≈ 1.68 µM)	12.5 (≈ 13.5 µM)			1.56 (≈ 1.68 µM)		6.25 (≈ 6.75 µM)	<0.781			1.56 (≈ 1.68 µM)	12.5 (≈ 13.5 µM)					0.5 (≈ 0.54 µM)			12.5 (≈ 13.5 µM)	MFC [8]: 3.125 µg/mL (≈ 3.37 µM); MFC [9]: 12.5 µg/mL (≈ 13.5 µM); MFC [10]: 3.125 µg/mL (≈ 3.37 µM); MFC (Candida auris CDC B11903): 15.625 µg/mL (≈ 16.9 µM); MFC [12]: 3.125 µg/mL (≈ 3.37 µM)

The next lines start with results.

MIC [8] [µg/mL]	MIC [9] [µg/mL]	MIC [1] [µg/mL]	MIC [2] [µg/mL]	MIC [10] [µg/mL]	MIC [3] [µg/mL]	MIC (Candida auris CDC B11903) [µg/mL]	MIC [11] [µg/mL]	MIC [4] [µg/mL]	MIC [5] [µg/mL]	MIC [12] [µg/mL]	MIC [13] [µg/mL]	MIC [6] [µg/mL]	Compound	MBC [1] [µg/mL]	MBC [2] [µg/mL]	MBC [3] [µg/mL]	MFC [11] [µg/mL]	MBC [4] [µg/mL]	MBC/MIC Ratio [4]	MFC [13] [µg/mL]	other results
>1000	>1000	1000 (≈ 3120 µM)	1000 (≈ 3120 µM)	>1000	500 (≈ 1560 µM)	>1000	500 (≈ 1560 µM)	1000 (≈ 3120 µM)	1000 (≈ 3120 µM)	>1000	500 (≈ 1560 µM)	>1000	Cn1cc([N+](=O)[O-])nc1C(=O)NNC(=S)Nc1ccccc1 [Compound 2]	>1000	1000 (≈ 3120 µM)	>1000	>1000	1000 (≈ 3120 µM)	1	>1000	MBC/MIC Ratio [2]: 1; MBC [5]: >1000 µg/mL; MIC [7]: >1000 µg/mL
>1000	>1000	125 (≈ 369 µM)	250 (≈ 739 µM)	>1000	250 (≈ 739 µM)	>1000	250 (≈ 739 µM)	250 (≈ 739 µM)	500 (≈ 1480 µM)	>1000	>1000	500 (≈ 1480 µM)	Cn1cc([N+](=O)[O-])nc1C(=O)NNC(=S)Nc1cccc(F)c1 [Compound 7]	250 (≈ 739 µM)	>1000	>1000	>1000	250 (≈ 739 µM)	1		MBC/MIC Ratio [1]: 2; MBC [5]: >1000 µg/mL; MBC [6]: 500 µg/mL (≈ 1480 µM); MBC/MIC Ratio [6]: 1; MBC [7]: >1000 µg/mL; MIC [7]: 500 µg/mL (≈ 1480 µM)
